Results on twelve compounds are retold here after US20230172945A1, “APPLICATION OF COMPOUNDS IN CONTROLLING OR KILLING MITES” (SMILEBIOTEK ZHUHAI LIMITED, priority 2020, published 2023).

For this assay, the system named is D. folliculorum. The experiment in a line: In-vitro culture of Demodex mites: effect of compounds on survival time. The format is cell-based. As to conditions: for survival time of the Demodex mites in vitro: compared with negative control 10% DMSO (80.79±25.34); for survival time of the Demodex mites in vitro / Survival time: 20° C., humidity 96%; for Survival time: in vitro, 35 μL solution in 10% DMSO on glass slide, observed every 2 hours, mean ± spread; for effect on survival time of mites as compared with the control group (in words): versus 10% DMSO negative control. On the procedure: The powders of the reference compounds shown in Table 1 were separately dissolved in dimethyl sulfoxide (DMSO), and then diluted with sterilized double-distilled water to make the final concentration of DMSO 10%, which could not shorten the survival time of Demodex mites as per a controlled study. The negative control group received DMSO mixed with sterilized water at a final concentration of 10%.
35 μL of each solution was added to a glass slide, and the survival of the mites was observed under an optical microscope every 2 hours. During the experiment, the Demodex mites were observed by two skilled operators separately for the activities (bodies, limbs and the like) through the microscope to determine whether they were dead or not. If the two operators gave different results, the survival status was determined independently by a third skilled operator. The in-vitro culture was conducted in a climatic chamber at a temperature of 20° C. and a humidity of 96%. During the observation, the glass slides were transported in a wet box to ensure the high humidity.
In this experiment, statistical analysis was conducted using SPSS22.0 statistical software, normality test was conducted using Shapiro-Wilk test, and homogeneity of variance test was conducted using Bartlett's test.
Effects of compounds on survival time of D. folliculorum The in-vitro culture of the Demodex mites was conducted in an environment at a humidity of 96% and a temperature of 20° C. The survival of the Demodex mites was observed dynamically and the survival time was recorded.

With `C=C1CC[C@]2(C)CC[C@]3(C)[C@H](CC[C@@H]4[C@@]5(C)CC[C@H](OC(C)=O)C(C)(C)[C@@H]5CC[C@]43C)[C@H]2[C@@H]1C` [Taraxasterol acetate], the “survival time of the Demodex mites in vitro” value (from here on “survival time … in vitro”) worked out at 37.91±20.96, the “Survival time” value stood at 34.14 ± 22.96 h and the “effect on survival time of mites as compared with the control group (in words)” value is recorded as “significantly shorten the survival time of mites”. On to `CC1(C)CC[C@]2(C)CC=C3[C@]4(C)CC[C@H]5C(C)(C)C(=O)CC[C@]5(C)[C@H]4CC[C@@]3(C)[C@@H]2C1` [Taraxerone], for which the “Survival time” value was 62.06 ± 28.97 h. On to `C=C[C@H]1[C@H](O[C@@H]2O[C@H](CO)[C@@H](O)[C@H](O)[C@H]2O)OC=C2C(=O)OCC[C@H]21` [Sweroside], for which the “Survival time” value was found to be 60.79 ± 25.98 h. As for `C=C(C)[C@@H]1CC[C@]2(C)CC[C@]3(C)[C@H](CC[C@@H]4[C@@]5(C)CCC(=O)C(C)(C)[C@@H]5CC[C@]43C)[C@@H]12` [Lupenone], the “Survival time” value came out at 66.25 ± 31.22 h. In the case of `C=C(C)[C@@H]1CC[C@]2(C)[C@H](CC=C3[C@@H]4[C@@H](C)[C@H](C)CC[C@]4(C)CC[C@]32C)[C@@]1(C)CCC(=O)O` [Roburic acid], the “Survival time” value worked out at 63.41 ± 12.20 h. Take `C=C[C@@H]1C2=CCOC(=O)C2=CO[C@H]1O[C@@H]1O[C@H](CO)[C@@H](O)[C@H](O)[C@H]1O` [Gentiopicroside]: the “survival time … in vitro” value is reported as 37.31±36.06, the “Survival time” value stood at 37.31 ± 36.06 h and the “effect on survival time of mites as compared with the control group (in words)” value is “significantly shorten the survival time of mites”. With `C=C1CC[C@]2(C)CC[C@]3(C)[C@H](CC[C@@H]4[C@@]5(C)CC[C@H](O)C(C)(C)[C@@H]5CC[C@]43C)[C@H]2[C@@H]1C` [Taraxasterol], the “Survival time” value was found to be 68.28 ± 31.30 h. On the same count and under the same terms, for `C=C[C@H]1[C@H](O[C@@H]2O[C@H](CO)[C@@H](O)[C@H](O)[C@H]2O)OC=C2C(=O)OCC[C@]21O` [Swertiamarin] the value was 59.68 ± 10.97 h. `CC1(C)CC[C@]2(C)CC=C3[C@]4(C)CC[C@H]5C(C)(C)[C@@H](O)CC[C@]5(C)[C@H]4CC[C@@]3(C)[C@@H]2C1` [Taraxerol]: the “survival time … in vitro” value was 37.91±20.96, the “Survival time” value turned out to be 37.91 ± 20.96 h and the “effect on survival time of mites as compared with the control group (in words)” value is “significantly shorten the survival time of mites”.

With `CC(=O)O[C@H]1CC[C@]2(C)[C@H]3CC[C@]4(C)C(=CC[C@@]5(C)CCC(C)(C)C[C@H]54)[C@]3(C)CC[C@H]2C1(C)C` [Taraxeryl acetate], the “Survival time” value amounted to 70.57 ± 27.45 h.

With `COc1ccc(-c2cc(=O)c3c(O)cc(O)cc3o2)cc1O` [Diosmetin], the “survival time … in vitro” value was 35.92±14.82, the “Survival time” value stood at 35.92 ± 14.82 h and the “effect on survival time of mites as compared with the control group (in words)” value was “significantly shorten the survival time of mites”. For the compound `C[C@@H]1[C@H]2[C@H](O[C@@H]3O[C@H](CO)[C@@H](O)[C@H](O)[C@H]3O)OC=C(C(=O)O)[C@H]2C[C@@H]1O` [Loganic acid], the “Survival time” value worked out at 61.56 ± 22.84 h.
